Legend:
[1] = system: PD-L1 suppressed human T cells; test: Activation of T-Cell Suppressed by PD-L1 (co-culture with PD-L1 transfected Hep3B cells, IFN-γ readout); type: cell-based; conditions: dose-dependent; Keytruda as positive control
Text: To measure the cellular activity of the compound, a protocol of Activation of T-Cell Suppressed by PD-L1 is used. In this protocol, human Hep3B cells are stably transfected with human PD-L1. The human T cells containing PD-1 are inactivated by co-culturing with these PD-L1 transfected cells. Then anti-PD-1 antibody Keytruda® (pembrolizumab) is selected as the reference to profile the compound for its activation of PD-L1 suppressed human T-cells. […] Keytruda is used as a positive control.

[2] = system: B16F10 tumor cells (melanoma); test: Anti-tumor efficacy in the B16F10 model in C57BL/6 mice; type: in vivo; conditions: PO, BID
Protocol: Materials required for the experiment: Antibody: mouse PD-1 antibody, Product specifications: 7.09 mg/mL (50 mg/mL), Lot No.: 695318A1 purchased from BioXcell, storage at 4° C. Experimental animals 60 C57BL/6 mice, female, 6-8 weeks old, 17-21 g, purchased from Shanghai Lingchang Biotechnology Co. Ltd. Formulation materials: castor oil (Cremophor RH40), CAS No.: 61788-85-0, Lot No.: 29761847G0, purchased from Shanghai Xietai Chemical Co. Ltd.; β-cyclodextrin (SBE-β-CD), CAS No.: 128446-35-5, Lot No.: 20180110, purchased from Shanghai Shaoyuan Chemical Co. Ltd.; DMEM culture medium, Art. No.: 11995-065, Lot No.: 2025378, purchased from Gibco Co. Ltd.; PBS, Art. […]
Cell preparation and implantation: The B16-F10 tumor cells (ATCC CRL-6475™) are maintained in vitro as a monolayer culture in DMEM medium supplemented with 10% heat inactivated fetal bovine serum at 37° C. in an atmosphere of 5% CO2 in air. […] The cells growing to a confluency around 70%-80% are harvested and counted for tumor inoculation. […]
Procedure: The mice in the vehicle group are weighed and recorded in the electronic balance according to their numbers. […]
The mice in the antibody (10 mg/kg) group are weighed and recorded in the electronic balance according to their numbers. […]
The mice in the compound (30 mg/kg) group are weighed and recorded in the electronic balance according to their numbers. […]

4T1 tumor cells [3] = test: Anti-tumor efficacy of Compound 1 and Opdivo in the 4T1 humanized mouse model; type: in vivo; conditions: for TGI at day 13: p<0.0001
Protocol: (§1) 4T1 tumor cells (ATCC, CRL-2539™) are maintained in vitro as a monolayer culture in RPMI 1640 medium supplemented with 10% heat inactivated fetal bovine serum at 37° C. in an atmosphere of 5% CO2 in air. The tumor cells are routinely subcultured three times weekly by trypsin-EDTA treatment. Each mouse is inoculated subcutaneously at the fourth mammary pad with 1×10^5 in 0.05 mL base medium for tumor development.
(§2) Compound 1 plus Opdivo (nivolumab): 40 BALB/c mice are inoculated subcutaneously at the fourth mammary pad with 4T1 cells for tumor development. On the six days of post inoculation, the mice are assigned into 4 groups using stratified randomization with 10 mice in each group based upon their tumor volume. The treatments are started from the day of randomization, and the groups receive the following treatments:
Group 1: Vehicle control; Group 2: Opdivio, 10 mg/kg, i.p., BIW; Group 3: Compound 1, 60 mg/kg, p.o., BID and Group 4: Compound 1, 60 mg/kg, p.o., BID+Opdivio, 10 mg/kg, i.p., BIW respectively.
(§3) The tumor sizes are measured three times per week during the treatment.
The tumor growth inhibition effect of the combination of Compound 1 and Opdivo is examined. The tumor inhibition rate is calculated as:
TGI (%)=(1−(the volume of the tumor on the day of administration−the volume of the tumor on the first day of administration (treatment group))/(the volume of the tumor on the day of administration−the volume of the tumor on the first day (vehicle group)))×100%.

4T1 tumor cells [4] = test: Anti-tumor efficacy of Compound 1 and Keytruda in the 4T1 humanized mouse model; type: in vivo
Protocol: as §1
as §2, with “1 plus Keytruda (pembrolizumab): 40 BALB/c” for “1 plus Opdivo (nivolumab): 40 BALB/c”, “the mice were assigned into” for “the mice are assigned into”, “The treatments were started from” for “The treatments are started from”
Group 1: Vehicle control; Group 2: Keytruda, 10 mg/kg, i.p., BIW; Group 3: Compound 1, 60 mg/kg, p.o., BID, and Group 4: Compound 1, 60 mg/kg, p.o., BID+Keytruda, 10 mg/kg, i.p., BIW respectively.
as §3
The tumor growth inhibition effect of the combination of Compound 1 and Keytruda is examined. The tumor inhibition rate is calculated as:
TGI (%)=(1−(the volume of the tumor on the day of administration−the volume of the tumor on the first day of administration (treatment group))/(the volume of the tumor on the day of administration−the volume of the tumor on the first day (vehicle group))×100%.

Cc1c(/C=C/c2cc(CN[C@@](C)(CO)C(=O)O)ccc2C(F)(F)F)cccc1-c1ccccc1 [Compound 1]
activation of PD-L1 suppressed human T cells, indicated by increase of cytokine IFN-γ [1]: effectively restores the activation of the PD-L1 suppressed human T cells
growth of subcutaneous transplanted melanoma cell line in mice ([2]; C57BL/6 mice): significantly inhibits the growth
tolerability in C57BL/6 mice ([2]; up to 120 mg/kg): well tolerated in C57BL/6 mice without obvious adverse reactions
TGI at day 13 (4T1 tumor cells [3]; 60 mg/kg, PO, BID): 21.70%
TGI at day 10 (4T1 tumor cells [4]; 60 mg/kg, PO, BID, p<0.0001): 22.36%

nivolumab [Opdivo]
TGI at day 13 (4T1 tumor cells [3]; 10 mg/kg, IP, BIW): 21.88%
time after dosing within which mice are found dead (4T1 tumor cells [3]; after the 5th dose of Opdivo at day 14, 10 mg/kg i.p. BIW, mice): ≤ 1 h

pembrolizumab [Keytruda]
TGI at day 10 (4T1 tumor cells [4]; 10 mg/kg, IP, BIW, p>0.5): 9.12%
time after dosing within which mice are found dead (4T1 tumor cells [4]; after the 4th dose of Keytruda at day 10, 10 mg/kg i.p. BIW, mice): ≤ 1 h

Source: US20230046904A1, “COMBINATION OF SMALL MOLECULE INHIBITOR OF THE PD-1/PD-L1 INTERACTION AND ANTI-PD-1 ANTIBODY FOR TREATING CANCER” (GUANGZHOU MAXINOVEL PHARMACEUTICALS CO., LTD., priority 2019, published 2023)
